As a reminder, the melting point is the temperature, or range, at which the solid turns liquid. In general, IC50 refers to the point on the concentration scale where inhibition reaches its midpoint. High values mean lower potency, low ones higher potency.

Molecules are shown by their SMILES. Where a name gives a salt, the structure may show the parent alone.

The values that follow come from patent US6413972B1, “Nitrogen-containing heterocyclic compounds, their production and use” (Takeda Chemical Industries, Ltd., priority 1997, dated 2002).

In one series the target is T1, human GnRH receptor (Homo sapiens, UniProt P30968).
T1 construct: expressed in transfected cells; host or cells: CHO (Chinese hamster ovary) cells; membrane fraction
T1 sequence (P30968 1-328): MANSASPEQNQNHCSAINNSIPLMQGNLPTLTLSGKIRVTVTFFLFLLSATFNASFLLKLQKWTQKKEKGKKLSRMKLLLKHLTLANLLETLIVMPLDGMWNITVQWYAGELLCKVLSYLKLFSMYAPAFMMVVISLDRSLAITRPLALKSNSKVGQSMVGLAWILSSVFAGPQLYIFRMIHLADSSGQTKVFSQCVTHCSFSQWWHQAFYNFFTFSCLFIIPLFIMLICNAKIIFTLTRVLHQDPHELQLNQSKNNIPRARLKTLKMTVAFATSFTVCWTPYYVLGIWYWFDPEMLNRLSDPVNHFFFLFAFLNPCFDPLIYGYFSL
Description: 125I-leuprorelin binding inhibition on CHO cell membrane fraction containing human GnRH receptor. As to conditions: membrane fraction of human GnRH receptor-expressing CHO cells, 25° C. for 60 minutes, from a Hill plot. How it is done: To a tube containing 10 μl of a 3×10^−4 M aqueous solution of leuprorelin and 10 μl of 0.01 mg/ml lactoperoxidase, 10 μl (37 MBq) of a solution of Na^125I was added. After stirring, 10 μl of 0.001% H2O2 was added, and a reaction was carried out at about 15 to 25° C. for 20 minutes. By adding 700 μl of a 0.05% TFA (trifluoroacetic acid) solution, the reaction was stopped, followed by purification by reversed-phase HPLC. The HPLC conditions used are shown below. ^125I-leuprorelin was eluted at a retention time of 26 to 27 minutes. […]
The human membrane fraction prepared in paragraph (2) above was diluted with the assay buffer to yield a 200 μg/ml dilution, which was then dispensed at 188 μl per tube. […] To determine maximum binding quantity, a reaction mixture of 2 μl of 60% DMSO and 10 μl of 38 nM ^125I-leuprorelin was prepared. […]
After a reaction was carried out at 25° C. for 60 minutes, the reaction mixture was aspirated and filtered through a polyethyleneimine-treated Whatman glass filter (GF-F). After this filtration, the radioactivity of ^125I-leuprorelin remaining on the filter paper was measured, using a γ-counter.
The binding inhibition rate (%) for the subject compound (PMB) was calculated, using the equation: […]

`Cc1c(Cc2ccccc2)c(=O)n2c(CN(C)Cc3ccccc3)c(-c3ccc(NC(=O)OC(C)(C)C)cc3)nc2n1Cc1c(F)cccc1F` [Example 19, 2-[4-(N-Boc-amino)phenyl]-8-(2,6-difluorobenzyl)-5,8-dihydro-3-(N-methyl-N-benzylaminomethyl)-6-benzyl-7-methyl-5-oxoimidazo[1,2-a]pyrimidine] came in with a melting point of 179 to 184 °C. Still for that read-out and setting: for `CCOC(=O)c1cn(Cc2c(F)cccc2F)c2nc(-c3ccc([N+](=O)[O-])cc3)c(CO)n2c1=O` [Example 11, 8-(2,6-difluorobenzyl)-5,8-dihydro-3-(hydroxymethyl)-2-(4-nitrophenyl)-5-oxoimidazo[1,2-a]pyrimidine-6-carboxylic acid ethyl ester] the value was 230 to 232 °C; for `CON(C)C(=O)c1cn(Cc2c(F)cccc2F)c2nc(-c3ccc(N)cc3)c(CN(C)Cc3ccccc3)n2c1=O` [Example 30, 8-(2,6-difluorobenzyl)-5,8-dihydro-2-(4-aminophenyl)-3-(N-methyl-N-benzylaminomethyl)-5-oxoimidazo[1,2-a]pyrimidine-6-(N-methyl-N-methoxy)carboxamide], 89 to 91 °C. In turn, `CCOC(=O)c1cn(Cc2c(F)cccc2F)c2nc(-c3ccc([N+](=O)[O-])cc3)c(CBr)n2c1=O` [Example 7, 3-bromomethyl-8-(2,6-difluorobenzyl)-5,8-dihydro-2-(4-nitrophenyl)-5-oxoimidazo[1,2-a]pyrimidine-6-carboxylic acid ethyl ester] returned a melting point of 205 to 210 °C. Consider `CCOC(=O)c1cn(Cc2c(F)cccc2F)c2nc(-c3ccc([N+](=O)[O-])cc3)c(C)n2c1=O` [Example 5, 8-(2,6-difluorobenzyl)-5,8-dihydro-3-methyl-2-(4-nitrophenyl)-5-oxoimidazo[1,2-a]pyrimidine-6-carboxylic acid ethyl ester], for which the melting point is 219 to 221 °C. `CCOC(=O)c1cnc2nc(-c3ccccc3)c(C)n2c1O` [Example 1, 5-hydroxy-3-methyl-2-phenylimidazo[1,2-a]pyrimidine-6-carboxylic acid ethyl ester] gave a melting point of 220 to 225 °C. Compound `CN(Cc1ccccc1)Cc1c(-c2ccc(NC(=O)c3ccoc3)cc2)nc2n(Cc3c(F)cccc3F)cc(C(=O)c3ccccc3)c(=O)n12` [Example 31, 8-(2,6-difluorobenzyl)-5,8-dihydro-2-(3-furylcarbonylaminophenyl)-3-(N-methyl-N-benzylaminomethyl)-6-benzoyl-5-oxoimidazo [1,2-a]pyrimidine] yielded a melting point of 172 to 174 °C. Same read-out and setting: for `CC(=O)N(C(=O)OC(C)(C)C)c1ccc(-c2nc3n(Cc4c(F)cccc4F)c(C)c(Cc4ccccc4)c(=O)n3c2C)cc1` [Example 17, 8-(2,6-difluorobenzyl)-5,8-dihydro-2-(4-(N-Boc-N-acetylamino)phenyl)-3-methyl-6-benzyl-7-methyl-5-oxoimidazo[1,2-a]pyrimidine] the value was 176 to 177 °C; for `CCOC(=O)c1cn(Cc2c(F)cccc2F)c2nc(-c3ccc(NC(=O)C(C)C)cc3)c(CN(C)Cc3ccccc3)n2c1=O` [Example 14, 8-(2,6-difluorobenzyl)-5,8-dihydro-2-(4-isobutyrylaminophenyl)-3-(N-methyl-N-benzylaminomethyl)-5-oxoimidazo[1,2-a]pyrimidine-6-carboxylic acid ethyl ester], 98 to 103 °C. Same read-out and setting: then `CCOC(=O)c1cn(Cc2c(F)cccc2F)c2nc(-c3ccc(N)cc3)c(CN(C)Cc3ccccc3)n2c1=O` [Example 12, 2-(4-aminophenyl)-8-(2,6-difluorobenzyl)-5,8-dihydro-3-(N-methyl-N-benzylaminomethyl)-5-oxoimidazo[1,2-a]pyrimidine-6-carboxylic acid ethyl ester], with 161 to 166 °C. As for `CCNC(=O)Nc1ccc(-c2nc3n(Cc4c(F)cccc4F)cc(C(=O)OCC)c(=O)n3c2CN(C)Cc2ccccc2)cc1` [Example 15, 8-(2,6-difluorobenzyl)-5,8-dihydro-2-(4-ethylaminocarbonylaminophenyl)-3-(N-methyl-N-benzylaminomethyl)-5-oxoimidazo[1,2-a]pyrimidine-6-carboxylic acid ethyl ester], the melting point fell in the range of 191 to 196 °C. The half-inhibitory concentration (IC50) on human GnRH receptor amounted to 500 pM. Turning to `Cc1c(-c2ccccc2)nc2n(Cc3c(F)cccc3F)cc(C(=O)CC(C)C)c(=O)n12` (as salt: hydrochloride) [Example 28, 8-(2,6-difluorobenzyl)-5,8-dihydro-2-phenyl-3-methyl-6-(3-methylbutyryl)-5-oxoimidazo[1,2-a]pyrimidine], the melting point is 158 to 166 °C. `CCNC(=O)Nc1ccc(-c2nc3n(Cc4c(F)cccc4F)cc(C(=O)OC(C)C)c(=O)n3c2CN(C)Cc2ccccc2)cc1` [Example 34, 8-(2,6-difluorobenzyl)-5,8-dihydro-2-[4-(ethylaminocarbonylamino)phenyl]-3-(N-methyl-N-benzylaminomethyl)-5-oxoimidazo[1,2-a]pyrimidine-6-carboxylic acid isopropyl ester] displayed a melting point of 198 to 200 °C. The same measure, in the same setting: for `CCOC(=O)c1cn(Cc2c(F)cccc2F)c2nc(-c3ccc([N+](=O)[O-])cc3)c(CN(C)Cc3ccccc3)n2c1=O` [Example 9, 8-(2,6-difluorobenzyl)-5,8-dihydro-3-(N-methyl-N-benzylaminomethyl)-2-(4-nitrophenyl)-5-oxoimidazo[1,2-a]pyrimidine-6-carboxylic acid ethyl ester] the value was 187 to 189 °C.
